Paper PMC5983544, “Muscarinic M5 receptors modulate ethanol seeking in rats” (Neuropsychopharmacology, 2018)

Columns and labels:
[1] = biological target: T1, rat M2 mAChR (Rattus norvegicus, UniProt P10980); assay: ACh-stimulated [35S]GTPγS binding in CHO-rM2 cell membranes; format: biochemical; conditions: rM2, [35S]GTPγS binding
T1 construct: host or cells: FlpIn CHO cells (Invitrogen)
T1 sequence (P10980 1-466): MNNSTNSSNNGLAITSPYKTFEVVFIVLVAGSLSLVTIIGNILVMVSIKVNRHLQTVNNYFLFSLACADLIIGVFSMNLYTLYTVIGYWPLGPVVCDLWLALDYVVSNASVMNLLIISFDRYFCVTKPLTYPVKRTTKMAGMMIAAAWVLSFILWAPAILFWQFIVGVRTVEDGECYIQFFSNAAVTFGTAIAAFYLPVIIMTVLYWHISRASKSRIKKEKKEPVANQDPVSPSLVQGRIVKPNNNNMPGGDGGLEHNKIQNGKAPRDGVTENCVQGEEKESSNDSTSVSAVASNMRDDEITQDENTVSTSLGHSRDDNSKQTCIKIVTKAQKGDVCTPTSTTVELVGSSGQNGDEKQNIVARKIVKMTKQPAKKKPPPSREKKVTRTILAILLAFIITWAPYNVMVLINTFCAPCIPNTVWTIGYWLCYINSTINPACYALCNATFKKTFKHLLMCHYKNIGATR
Protocol: (§1) [^3H]NMS equilibrium binding assays in CHO-rM1 to CHO-rM5 cells were performed as previously described for CHO-hM5 cells. For [^35S]GTPγS binding, CHO-rM2 and CHO-rM4 cell membranes were prepared as described in Supplementary information. Membrane [^35S]GTPγS binding was performed as described in ref [26]., except GDP and [^35S]GTPγS concentrations were 1 μM and 0.3 nM, respectively. [^3H](+)-pentazocine binding was performed as described in ref. [27].

[2] = biological target: T2, rat M4 mAChR (Rattus norvegicus, UniProt P08485); assay: ACh-stimulated [35S]GTPγS binding in CHO-rM4 cell membranes; format: biochemical; conditions: rM4, [35S]GTPγS binding
T2 construct: host or cells: FlpIn CHO cells (Invitrogen)
T2 sequence (P08485 1-478): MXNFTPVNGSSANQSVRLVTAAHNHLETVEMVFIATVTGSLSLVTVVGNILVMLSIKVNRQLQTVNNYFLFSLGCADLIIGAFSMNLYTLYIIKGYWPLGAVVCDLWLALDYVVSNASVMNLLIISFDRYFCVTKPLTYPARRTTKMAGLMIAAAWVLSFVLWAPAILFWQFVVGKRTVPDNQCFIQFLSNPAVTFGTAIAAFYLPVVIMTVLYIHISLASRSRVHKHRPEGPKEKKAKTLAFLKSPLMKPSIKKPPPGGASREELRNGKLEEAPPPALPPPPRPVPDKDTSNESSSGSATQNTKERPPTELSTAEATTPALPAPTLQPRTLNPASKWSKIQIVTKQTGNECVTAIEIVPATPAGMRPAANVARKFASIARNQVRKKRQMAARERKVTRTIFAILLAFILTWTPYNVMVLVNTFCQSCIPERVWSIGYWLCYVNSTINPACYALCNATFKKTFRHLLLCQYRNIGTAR
Protocol: as §1

[3] = biological target: T3, human cannabinoid 1 receptor (hCB1) (Homo sapiens, UniProt P21554); assay: CHO-hCB1 ERK1/2 phosphorylation assay; format: cell-based
T3 construct: expressed in transfected cells; host or cells: FlpIn CHO cells (Invitrogen)
T3 sequence (P21554 whole entry): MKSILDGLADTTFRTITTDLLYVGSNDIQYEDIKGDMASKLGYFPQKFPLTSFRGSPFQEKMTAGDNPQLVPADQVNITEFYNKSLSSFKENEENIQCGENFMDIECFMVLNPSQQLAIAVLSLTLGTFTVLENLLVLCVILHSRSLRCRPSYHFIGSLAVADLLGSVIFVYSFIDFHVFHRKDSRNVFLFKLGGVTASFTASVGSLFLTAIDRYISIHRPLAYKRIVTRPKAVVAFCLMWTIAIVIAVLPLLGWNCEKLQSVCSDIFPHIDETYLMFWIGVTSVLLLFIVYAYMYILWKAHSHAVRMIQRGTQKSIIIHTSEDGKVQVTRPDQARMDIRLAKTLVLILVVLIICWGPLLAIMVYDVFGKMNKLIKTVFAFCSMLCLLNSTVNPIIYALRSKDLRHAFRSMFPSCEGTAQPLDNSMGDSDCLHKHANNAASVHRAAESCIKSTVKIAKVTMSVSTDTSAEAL
Protocol: Rat mAChR subtypes (rM1–rM5; Origene) and human cannabinoid 1 receptor (hCB1; ref. [24]) constructs were isogenically integrated into FlpIn CHO cells (Invitrogen) and cells were selected in the presence of […] hygromycin B at 37 °C, 5% CO2, as previously described for the human M1 mAChR [25]. All cells were sub-cultured and seeded as previously described for the CHO-hM5 cells.
The IP-One assay kit (Cisbio) was used for the direct quantitative measurement of inositol phosphate (IP) accumulation in CHO-rM1, CHO-rM3 or CHO-rM5 cells, as described previously. The CHO-hCB1 pERK1/2 assays were performed as described in ref [24].
Sigma-1 data are expressed as a percentage of specific [^3H]-(+)-pentazocine binding; ERK1/2 phosphorylation data are expressed percentage of the response to 10% FBS. Data represent the mean ± S.E.M. of 5-7 independent experiments performed in duplicate or triplicate.

[4] = Rat pharmacokinetics (intraperitoneal or oral dosing); format: in vivo
Protocol: ML375 pharmacokinetics after either intraperitoneal or oral dosing of rats was determined as described in Supplementary information.

[5] = tested on: ethanol-preferring (iP) rats; assay: Locomotor activity; format: in vivo, rat; conditions: 60 min
Protocol: Rats (n = 6) were habituated to the locomotor room for at least 3 h.

[6] = tested on: ethanol-preferring (iP) rats; assay: Ethanol self-administration after bilateral microinjection into dorsolateral (DL) striatum; format: in vivo, rat; conditions: intra-DL striatum, 105 pmol/hemisphere
Description: (§2) Male iP rats (n = 14) were trained to self-administer 10% (v/v) ethanol via lever presses under FR3 operant conditions for approximately 12 weeks, in the presence of a 1-s light conditioned stimulus (CS+) occurring when the ethanol solution was delivered and an olfactory cue (S+ cue; one drop of vanilla essence, placed directly below the ethanol-paired (active) lever), as previously described, followed by surgery and testing. […] Rats were then given 7 days of ethanol self-administration before receiving the alternate treatment in a counterbalanced manner. For full details refer to Supplementary material.
(§3) Microinjections were performed as previously described; for full details see Supplementary material.

[7] = tested on: ethanol-preferring (iP) rats; assay: Ethanol self-administration after bilateral microinjection into dorsomedial (DM) striatum; format: in vivo, rat; conditions: intra-DM striatum, 105 pmol/hemisphere
Description: as §2, §3
There was a main effect of lever (F(1, 15) = 59.4, P < 0.0001) but no effect of treatment (F(1, 15) = 0.22, P = 0.65) (Fig. 5b).

[8] = biological target: hM5 mAChR; conditions: same assay; cited from earlier work
[9] = tested on: hM5 mAChR; conditions: cited from earlier work
[10] = single 30 mg/kg oral dose, plasma

## O=C(c1ccc(F)c(F)c1)N1CCN2C(=O)c3ccccc3[C@@]12c1ccc(Cl)cc1 [ML375, (S)-9b-(4-chlorophenyl)-1-(3,4-difluorobenzoyl)-2,3-dihydro-1H-imidazo[2,1-a]isoi ndol-5(9bH)-one]
[1]
  effect on ACh potency: no significant effects
[2]
  effect on ACh potency: no significant effects
[3]; CHO-hCB1, concentrations up to 10 μM
  effect in ERK1/2 phosphorylation assays: no apparent effect
[3]; FlpIn-CHO hCB1, agonist mode
  agonist activity, ERK1/2 phosphorylation: no agonist activity
[3]; FlpIn-CHO hCB1, antagonist mode
  inhibition of WIN 55212-2 (1µM)-stimulated ERK 1/2 phosphorylation: failed to inhibit
[4]; 20 mg/kg i.p., 24 h profile
  clearance: low clearance
  terminal half-life: long terminal half-life
[4]; brain and plasma, ip, 20 mg/kg i.p., 24 h timepoint, read-out: brain-to-plasma ratio
  Kp at 24 h: 3 ± 0.7
[4]; [10]
  Cmax: 4.7 ± 0.7 µM
  Tmax: 7 h
[5]; 30 mg/kg p.o., P = 0.53
  locomotor activity vs vehicle: no difference
[5]; 56.6 mg/kg p.o., P = 0.016
  locomotor activity vs vehicle: did reduce locomotor activity
[6]; P = 0.011
  responding for ethanol vs vehicle: significantly reduced responding for ethanol
[6]; P > 0.99
  responding for water vs vehicle: no difference
[7]
  ethanol responding vs vehicle: did not affect ethanol responding
[8]
  binding affinity pKB: 6.87
  cooperativity with ACh binding, Log α: −1.37
[9]
  functional affinity pKB: 6.22
